From patent publication US6809208B2, “3-Arylbenzofuranones with electron-withdrawing substituents as stabilizers” (Ciba Specialty Chemicals Corporation, priority 2000, dated 2004)
Each block holds one molecule with its values, some of them ahead of it.

What was measured:
[1] = Stabilization of multiple-extruded polypropylene; conditions: 0.05% of compound; heating zones 260, 270, 280° C.; measured at 230° C./2.16 kg; without compound 17.5
Protocol: 1.3 kg of polypropylene powder (Profax 6501), which has been prestabilized with 0.025% of Irganox®1076 (n-octadecyl 3-[3,5-di-tert-butyl-4-hydroxyphenyl]propionate) (melt index 3.2 g/10 min, measured at 230° C./2.16 kg) are blended with 0.05% of Irganox®1010 (pentaerythritol tetrakis[3-(3,5-di-tert-butyl-4-hydroxyphenyl)propionate]), 0.05% of calcium stearate, 0.03% of DHT 4A® (Kyowa Chemical Industry Co., Ltd., [Mg4.5Al2(OH)13CO3.3.5H2O]) and 0.05% of compound of Table 4. This blend is then extruded in an extruder having a cylinder diameter of 20 mm and a length of 400 mm at 100 rpm, the 3 heating zones being adjusted to the following temperatures: 260, 270, 280° C. The extrudate is cooled by drawing it through a water bath and is then granulated. This granulate is repeatedly extruded. After 3 extrusions, the melt index is measured (at 230° C./2.16 kg). A substantial increase in the melt index denotes pronounced chain degradation, i.e. poor stabilization.

[2] = Stabilization of polyethylene during processing (Brabender plastograph); conditions: 0.05 part compound and 0.05 part Irganox 1010 per 100 parts polyethylene; 220° C., 50 rpm; without compound 9.7
Protocol: 100 parts of polyethylene powder (Lupolen®5260 Z) are blended with 0.05 part of Irganox®1010 (pentaerythritol tetrakis[3-(3,5-di-tert-butyl-4-hydroxyphenyl)propionate]) and 0.05 part of a compound of Table 5 and the blend is kneaded in a Brabender plastograph at 220° C. and 50 rpm. During this time the kneading resistance is recorded continuously as torque. In the course of the kneading time the polymer begins to crosslink after prolonged constancy, as can be determined by the rapid increase in torque. The time taken until a marked increase in torque is shown in Table 5 as a measure of the stabilizing action. The longer this time is the better the stabilizing action.

[3] = Prevention of migration of the oxidized developer in a color photographic material (three layer test elements, interlayer scavenger); conditions: 20 mg.m^−2 scavenger in interlayer; AGFA P-94 developing process; control without scavenger 0.293
Protocol: To evaluate compounds of this invention with respect to their ability as interlayer scavengers for oxidized developing agent, three layer photographic test elements are prepared by providing layers in the order indicated on a polyethylene-coated paper support:
(2) An interlayer containing:
The test elements are imagewise exposed through a step wedge with density increment 0.15 and thereafter subjected to the AGFA P-94 developing process.
Upon processing of the test elements, some oxidized developer is prone to migrate from the layer in which it is formed, for example the undermost, magenta-dye-providing layer, to the topmost layer containing the cyan-dye-forming coupler, thereby producing unwanted cyan dye. The amount of cyan dye that is generated depends on the ability of the interlayer to prevent the diffusion of oxidized developer.

[4] = Stabilization of multiple-extruded polypropylene at high temperature; design: unit not given here; conditions: measured at 230° C./2.16 kg
Protocol: This blend is then extruded in an extruder having a cylinder diameter of 20 mm and a length of 400 mm at 100 rpm, the 3 heating zones being adjusted to the following temperatures: 280, 320, 340° C. The extrudate is cooled by drawing it through a water bath and is then granulated. This granulate is repeatedly extruded. […] A substantial increase in the melt index denotes pronounced chain degradation, i.e. poor stabilization.

[5] = Stabilization of polycarbonate (oven ageing at 135° C., yellowness index and transmission); conditions: 0.01% stabilizer; for Yellowness index prior to oven-ageing: 2 mm plates, ASTM D 1925-70; for Transmission in % prior to oven-aging / Transmission in % after 2000 hours at 135° C.: at 450 nm; for Transmission in % after 2000 hours at 135° C.: without stabilizer 76.4; for Yellowness index after 2000 hours at 135° C.: circulating air oven, without stabilizer 25.0
Protocol: This mixture is then extruded in a Schwabenthan extruder at a maximum of 280° C. The polymer string is then granulated. Using an injection moulding machine, plates having a layer thickness of 2 mm are then moulded from the granulate so obtained at a maximum of 300° C. […] Low YI values denote little discoloration, high YI values high discoloration of the patterns. […] The results are compiled in Tables 17 and 18.

[6] = Light-colored SBR-vulcanisate, ozone atmosphere for 96 hours: crack formation; design: key: grade 0: Grade 0 denotes no cracks; grade 1 denotes narrow flat cracks; grade 2 denotes moderately broad, moderately deep cracks, clearly visible; grade 3 denotes broad and deep cracks; conditions: 2.0 phr stabilizer, ozone 50 pphm, 40° C., dynamic elongation, without stabilizer grade 2
Protocol: (§1) 100 parts by weight of Cariflex®S-1502 (styrene/butadiene rubber, Shell) are processed at 60° C., in a mixing mill, with 30.0 parts by weight of Kronos®CL 220 [titanium dioxide (pigment), Kronos Titan GmbH], 30.0 parts by weight of Aktisil®MM [kaolin (filler), Hoffmann Mineral, Neuburg/Donau], 5.0 parts by weight of Naftolen®N 401 [plasticiser, Metallgesellschaft], 10.0 parts by weight of zinc oxide [vulcanization activator], 2.0 parts by weight of stearic acid [vulcanization activator], 2.0 parts by weight of sulfur [vulcanizing agent], 1.0 part by weight of Vulkacit®MOZ [vulcanization accelerator, Bayer], 0.25 part by weight of Vulkacit®Thiuram [vulcanization accelerator, […], to form a homogeneous mixture, the vulcanization system (sulfur, Vulkacit®MOZ and Vulkacit®Thiuram) not being added until the end of the mixing process. The mixture is vulcanized in electrical vulcanization presses at 150° C. until T95 is reached in the rheometer curves to form elastomer plates 2 mm thick, 21 cm long and 8.0 cm wide.
Some of the elastomer plates so obtained are tested for the action of ozone according to the ASTM standard D 3395-86 while subject to dynamic elongation. In this test the plates are first stored for 30 days in a standard atmosphere [23/50 SN-ISO 291]. Test specimens measuring 20 cm by 1 cm are then punched out and exposed to an ozone atmosphere for 96 hours (ozone content: 50 pphm; temperature: 40° C.; humidity: 50% rel.; elongation: 0 to 25%; elongation rate: 0.5 Hz; number of load cycles: approximately 173 000). The test plates are then assessed for crack formation according to ASTM D 3395-86. Grade 0 denotes no cracks; grade 1 denotes narrow flat cracks; grade 2 denotes moderately broad, moderately deep cracks, clearly visible; grade 3 denotes broad and deep cracks. The lower the grade number, the better the stabilization of the elastomer plates.

[7] = Light-colored SBR-vulcanisate (Example 23): ΔL-color after 3 weeks in diffuse daylight; conditions: 2.0 phr stabilizer; 3 weeks at room temperature in diffuse daylight; scale 0 to 100, 100 = no discoloration; without stabilizer 97
Protocol: as §1
The remaining elastomer plates are stored for 3 weeks at room temperature in a standard laboratory atmosphere in diffuse daylight. The ΔL-color of those plates is then determined according to DIN 6167, which corresponds to a scale of from 0 to 100. No discoloration is indicated by a value of 100.

[8] = Stabilisation of polybutylene terephthalate (impact strength in oven-ageing test at 160° C.); conditions: for Impact strength after 360 h: without stabilizer 26
Protocol: 1.0 kg of a polybutylene terephthalate powder which has been dried for 10 hours at 100° C. in a vacuum drying oven (Crastin®S600, of Ciba Specialty Chemicals Inc.) is charged with the stabilizers listed in Table 20 and is mixed for 2 minutes in a Henschel mixer. This mixture is then extruded in a twin-screw extruder (type Berstorff) at a maximum of 250° C. and is then granulated. In an injection moulding apparatus, the granulate so obtained is moulded at a maximum of 260° C. to little rods 4×6 mm thick and 50 mm long. These little rods are then aged in a circulating air oven at 160° C. After 360 hours the impact strength of the rods is measured in KJ/m^2. The higher the values, the better the stabilization.

[9] = Stabilization of polycarbonate (Weather-O-Meter exposure); conditions: 0.30% stabilizer; Weather-O-Meter WOM CI 65; without stabilizer 30.2
Protocol: 1.0 kg of a polycarbonate powder which has been dried for 8 hours at 120° C. in a vacuum drying oven (Lexan®145, of General Electric) is charged with the stabilizers listed in Table 21 and is mixed for 2 minutes in a Henschel mixer. This mixture is then extruded in a Schwabenthan extruder at a maximum of 280° C. The polymer string is then granulated. Using an injection moulding machine, plates having a layer thickness of 2 mm are then moulded from the granulate so obtained at a maximum of 300° C. These plates are then irradiated in a Weather-O-Meter (WOM CI 65) for 2500 hours at a black standard temperature of 63° C., at a dry/wet cycle of 102/18 minutes and at an intensity of 0.35 W/m^2 at 340 nm. The yellowness index (YI) of these plates is then determined according to ASTM D 1925-70. Low YI values denote little discoloration, high YI values high discoloration of the plates. […]

melting point: 146 to 147 °C
SMILES: CC(C)(C)c1cc2c(c(C(C)(C)C)c1)OC(=O)C2c1ccc(F)cc1 (stereo not shown) [(105), 5,7-di-tert-butyl-3-(4-fluorophenyl)-3H-benzofuran-2-one]
Melt index after 3 extrusions [1]: 4.7 | Time until increase in torque [2]: 27.0 min

melting point: 127 to 128 °C
SMILES: CC(C)(C)c1cc2c(c(C(C)(C)C)c1)OC(=O)C2c1ccc(C(F)(F)F)cc1 (stereo not shown) [Compound (101), 5,7-di-tert-butyl-3-(4-trifluoromethyl-phenyl)-3H-benzofuran-2-one]
Cyan density at a magenta density of 1.5 [3]: 0.253 | Melt index after 3 extrusions [1]: 4.7 | Time until increase in torque [2]: 27.5 min | Melt index after 5 extrusions ([4]; 280° C., stabilizer 0.015% by weight): 8.5 | Melt index after 5 extrusions ([4]; 320° C., stabilizer 0.015% by weight): 19.6 | Melt index after 5 extrusions ([4]; 340° C., stabilizer 0.015% by weight): 22.5 | Yellowness index prior to oven-ageing [5]: 3.4 | Transmission in % prior to oven-aging [5]: 85.8% | Transmission in % after 2000 hours at 135° C. [5]: 81.3% | Yellowness index after 2000 hours at 135° C. [5]: 16.4 | Crack formation according to ASTM D 3395-86 [6]: grade 1 | ΔL-color according to DIN 6167 [7]: 95

melting point: 136 to 137 °C
SMILES: CC(C)(C)c1cc2c(c(C(C)(C)C)c1)OC(=O)C2c1ccc(C#N)cc1 (stereo not shown) [Compound (106), 5,7-di-tert-butyl-3-(4-cyanophenyl)-3H-benzofuran-2-one]

SMILES: COC(=O)c1ccc(C2C(=O)Oc3c2cc(C(C)(C)C)cc3C(C)(C)C)cc1 (stereo not shown) [Compound (109), 5,7-di-tert-butyl-3-(4-methoxycarbonylphenyl)-3H-benzofuran-2-one]
Cyan density at a magenta density of 1.5 [3]: 0.254 | Melt index after 3 extrusions [1]: 4.8 | Time until increase in torque [2]: 27.5 min

SMILES: CCCCCCCCCCCCCCCCCCOC(=O)c1ccc(C2C(=O)Oc3c2cc(C(C)(C)C)cc3C(C)(C)C)cc1 (stereo not shown) [Compound (112)]
Yellowness index prior to oven-ageing [5]: 3.5 | Transmission in % prior to oven-aging [5]: 85.9% | Transmission in % after 2000 hours at 135° C. [5]: 81.8% | Yellowness index after 2000 hours at 135° C. [5]: 14.3

SMILES: Cc1cc(CCC(=O)OCCOCCOCCOC(=O)CCc2cc(C)c(O)c(C(C)(C)C)c2)cc(C(C)(C)C)c1O [Irganox ®245]
Impact strength after 0 h ([8]; 0.05% stabilizer): 132 KJ/m^2 | Impact strength after 360 h ([8]; 0.05% stabilizer): 111 KJ/m^2 | Impact strength after 0 h ([8]; 0.10% stabilizer): 135 KJ/m^2 | Impact strength after 360 h ([8]; 0.10% stabilizer): 114 KJ/m^2

SMILES: CC(C)(C)c1ccc(OP(Oc2ccc(C(C)(C)C)cc2C(C)(C)C)c2ccc(-c3ccc(P(Oc4ccc(C(C)(C)C)cc4C(C)(C)C)Oc4ccc(C(C)(C)C)cc4C(C)(C)C)cc3)cc2)c(C(C)(C)C)c1 [Sandostab ®P-EPQ, tetrakis(2,4-di-tert-butylphenyl)-4,4′-biphenylene diphosphonite]
Melt index after 5 extrusions ([4]; 280° C., stabilizer 0.050% by weight): 6.3 | Melt index after 5 extrusions ([4]; 320° C., stabilizer 0.050% by weight): 23.9 | Melt index after 5 extrusions ([4]; 340° C., stabilizer 0.050% by weight): 61.5

SMILES: CC(C)(c1ccccc1)c1cc(-n2nc3ccccc3n2)c(O)c(C(C)(C)c2ccccc2)c1 [Tinuvin ®234]
Yellowness index after 2500 h exposure to light [9]: 17.8

SMILES: CC(C)(C)CC(C)(C)c1cc(Cc2cc(C(C)(C)CC(C)(C)C)cc(-n3nc4ccccc4n3)c2O)c(O)c(-n2nc3ccccc3n2)c1 [Tinuvin ®360]
Yellowness index after 2500 h exposure to light [9]: 16.6

SMILES: CCCCCCOc1ccc(-c2nc(-c3ccccc3)nc(-c3ccccc3)n2)c(O)c1 [Tinuvin ®1577]
Yellowness index after 2500 h exposure to light [9]: 11.2
